Experimental data as given in patent US6906108B2, “Extracts of vetiver oil as repellent and toxicant to ants, ticks, and cockroaches” (Board of Supervisors of Louisiana State University and …, priority 2001, dated 2005).

What was measured:
Format in all cases: in vivo
[1] = tested on: ticks (Ixodes scapularis); test: Tick Petri dish bioassay with treated sand (repellency and toxicity); settings: 2.75 mg/dish
Method: To test the effectiveness of nootkatone against ticks, ticks (Ixodes scapularis) were collected from Idlewild, La. Nootkatone efficiacy was tested relative to a known repellent, N,N-diethyl-m-toluamide (“Deet”). REPEL®, which contains 27.55% Deet, was purchased locally from a retail garden store.
The bioassay was conducted using Petri dishes (5 cm diameter and 1 cm height). To ensure adequate moisture for the ticks, 1 ml of a hot agar solution (1.5% in H2O) was spread evenly on the inside surfaces of the Petri dish, including the top, bottom, and edges. After the agar cooled, sand that was treated as described below was spread evenly on the inside surfaces of the Petri dish. The sand was held in place by the agar.
For the treated sand, either 2 mg nootkatone or 100 mg REPEL® was initially dissolved in 2 ml ethanol, and then 200 μl of the solution was mixed with 2 g sand that had been autoclaved and cooled. The control was autoclaved sand with 200 μl ethanol only added. One half of the surfaces in the Petri dishes were covered with 2 g treated sand, and the other half with 2 g untreated sand. In the nootkatone-treated Petri dishes, the final concentration was 200 μg/dish; while in the Deet treated Petri dishes, the final concentration was 2.75 mg/dish. Control Petri dishes were prepared by covering all sides with untreated sand. One tick was added to each Petri dish, and the top replaced. The number of replicates were as follows: control, 6; nootkatone, 9; and Deet, 8. […] Repellent activity was noted if the tick was found on the untreated side of the Petri dish. The ticks in the control Petri dishes were randomly distributed on the left and right sides.
The above experiment was repeated with ticks (Ix. scapularis) collected from Hammond, La. The number of replicates in this experiment were as follows: controls, 8; nootkatone, 10; and Deet, 8.

[2] = tested on: German cockroaches (Blattella germanica); test: German cockroach Petri dish filter paper bioassay (repellency and toxicity)
Method: To test the efficacy of nootkatone against cockroaches, German cockroaches (Blattella germanica) were collected at Baton Rouge, La., the same day as the bioassay was begun.
For the bioassay, Petri dishes (10 cm diameter×1 cm) were used. The Petri dishes were prepared by lining one half of the top and one half of the bottom with a half circle of filter paper (125 mm), and lining the other half with a second half circle of filter paper. For the treated Petri dishes, 50 mg nootkatone and 300 mg REPEL® were dissolved in 2.0 ml ethanol. To each Petri dish was added either ethanol only, 30 mg Deet, 1 mg nootkatone, or 10 mg nootkatone. Ten replicate Petri dishes were used for each of the treatments. The ethanol solution was added to the filter paper on the top and bottom and dried for 10 min. One cockroach was added to each Petri dish. The length of the cockroaches varied from 1 to 1.5 cm. The dishes were then observed at 15 min, 30 min, 1 hr, 2 hr, 3 hr, 4 hr, 5 hr, 24 hr, 48 hr, and 120 hr.

[3] = tested on: cat fleas (Ctenocephalides felis (Bouche)); test: Cat flea Petri dish filter paper bioassay (repellency and mortality); settings: 2.76 mg per dish
Method: To test the effectiveness of nootkatone against fleas, cat fleas (Ctenocephalides felis (Bouche)) were collected from a flea colony at St. Gabriel, La.
Petri dishes (5 cm diameter and 1 cm height) were prepared by lining one half of the top and the bottom with a half circle of filter paper (55 mm), and lining the other half with a second half circle of filter paper. For the treated Petri dishes, 50 mg nootkatone or 100 mg REPEL® were dissolved in 0.5 ml ethanol. […] Ten replicate Petri dishes were used for each of the treatments. The ethanol solution was added to the filter paper on the top and bottom and dried for 10 min. To place the fleas in the Petri dishes, fleas were temporarily immobilized by placing them at −20° C. for 5 min. The number of fleas in each Petri dish varied: for the 10 control Petri dishes, the average number in each dish was 10.2, with a range of 4 to 23; for 0.2 mg nootkatone, the average number in each dish was 8.5, with a range of 5 to 18; for 1 mg nootkatone, the average number in each dish was 10.6, with a range of 6 to 21; for 2 mg nootkatone, the average number in each dish was 11.1, with a range of 9 to 15 (Fleas could be counted in only 9 Petri dishes; one had too many fleas to count); and for 2.76 mg Deet, the average number in each dish was 6.7, with a range of 5 to 9.
The number of fleas on each side of each Petri dish was counted at 1 hr, 2 hr, 3 hr, 4 hr, 24 hr, 48 hr, 72 hr, and 96 hr.

[4] = 8 replicates, ticks from Hammond

In the case of `CCN(CC)C(=O)c1cccc(C)c1` [Deet, N,N-diethyl-m-toluamide, reference compound], the “Petri dishes that lost the repellent activity after 96 hr” value [1, 4] is reported as “one”, the “Ticks dead at 24 hr (number)” value [1, 4] is reported as “one” and the “Ticks dead at 72 hr (number)” value [1, 4] is reported as “one”. The “Ticks dead at 96 hr (number)” value [1, 4] was “four”, the “Petri dishes that had lost the repellent activity after 90 hr” value ([1]; 8 replicates, ticks from Idlewild) was “three” and the “Ticks dead at 96 hr (percent)” value ([1]; ticks from Hammond) was 50%. For the same compound, the “Ticks dead after 90 hr” value ([1]; ticks from Idlewild) was “No ticks”, the “Repellent activity against the cockroaches” value ([2]; 30 mg per dish) was “no significant repellent activity” and the “Percent Repellency” value ([2]; 30 mg per dish, 30 min) was 50%. For the same compound, the “Percent Repellency” value ([2]; 30 mg per dish, 1 hr) was 40%, the “Percent Repellency” value ([2]; 30 mg per dish, 2 hr) was 70% and the “Percent Repellency” value ([2]; 30 mg per dish, 3 hr) was 50%. For the same compound, the “Percent Repellency” value ([2]; 30 mg per dish, 4 hr) was 60%, the “Percent Repellency” value ([2]; 30 mg per dish, 5 hr) was 70% and the “Percent Repellency” value ([2]; 30 mg per dish, 24 hr) was 38%. The “Percent Repellency” value ([2]; 30 mg per dish, 48 hr) was 43%, the “Percent Repellency” value ([2]; 30 mg per dish, 120 hr) was 50% and the “Number of cockroach deaths compared with the control” value ([2]; any of the treatments (30 mg Deet; 1 mg or 10 mg nootkatone), up to 120 hr) was “not significantly different from the control”. The “Overall activity against fleas” value [3] was “effective as both a repellent and a toxicant” and the “Repellent activity against fleas” value ([3]; first observation (1 hr)) was “showed repellent activity”.
